Test results published in PubChem BioAssay AID330 (DTP/NCI, 2004).
Several values for one entry are separate records, joined by “and”; a condition that tells them apart may be missing. Equal values may be shown once. Inconclusive results and toxic doses are left out. Rule for the calls: active = survival T/C of 150% or more; inactive = T/C below 125% in these data.

Test system: P388 leukemia ip, CD2F1 mice, survival T/C
Experiment: NCI In Vivo Anticancer Drug Screen. Data for tumor model P388 Leukemia (intraperitoneal) in CD2F1 (CDF1) mice
Settings: endpoint: median survival time, higher = longer survival
Outline: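 Mice carrying the transplanted tumor received test compound or vehicle. Survival was recorded in each group, and the value is the treated-group measurement divided by that of the vehicle-treated control group.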

[1] = dose: 60.0 mg/kg/injection, schedule: Q01DX005 (ip), vehicle: saline
[2] = dose: 120.0 mg/kg/injection, schedule: Q01DX005 (ip), vehicle: saline
[3] = dose: 50.0 mg/kg/injection, schedule: Q01DX005 (ip), vehicle: saline with Tween-80
[4] = dose: 100.0 mg/kg/injection, schedule: Q01DX005 (ip), vehicle: saline with Tween-80
[5] = dose: 200.0 mg/kg/injection, schedule: Q01DX005 (ip), vehicle: saline with Tween-80
[6] = dose: 60.0 mg/kg/injection, schedule: Q01DX005 (ip), vehicle: Klucel (hydroxypropylcellulose) (HPC)
[7] = dose: 120.0 mg/kg/injection, schedule: Q01DX005 (ip), vehicle: Klucel (hydroxypropylcellulose) (HPC)
[8] = dose: 25.0 mg/kg/injection, schedule: Q01DX009 (ip), vehicle: saline
[9] = dose: 50.0 mg/kg/injection, schedule: Q01DX009 (ip), vehicle: suspension in saline
[10] = dose: 100.0 mg/kg/injection, schedule: Q04DX003 (ip), vehicle: saline with Tween-80
[11] = dose: 200.0 mg/kg/injection, schedule: Q04DX003 (ip), vehicle: saline with Tween-80
[12] = dose: 400.0 mg/kg/injection, schedule: Q04DX003 (ip), vehicle: saline with Tween-80
[13] = dose: 60.0 mg/kg/injection, schedule: Q01DX005 (ip), vehicle: saline with Tween-80
[14] = dose: 30.0 mg/kg/injection, schedule: Q01DX005 (ip), vehicle: saline
[15] = dose: 12.5 mg/kg/injection, schedule: Q01DX009 (ip), vehicle: other
[16] = dose: 25.0 mg/kg/injection, schedule: Q01DX009 (ip), vehicle: other
[17] = dose: 100.0 mg/kg/injection, schedule: Q01DX009 (ip), vehicle: other
[18] = dose: 120.0 mg/kg/injection, schedule: Q01DX005 (ip), vehicle: saline with Tween-80
[19] = dose: 240.0 mg/kg/injection, schedule: Q01DX005 (ip), vehicle: saline with Tween-80

Measured: T/C

FC(F)(F)C1(C(F)(F)F)OS2(OC1(C(F)(F)F)C(F)(F)F)OC(C(F)(F)F)(C(F)(F)F)C(C(F)(F)F)(C(F)(F)F)O2
inactive: dose: 100.0 mg/kg/injection, schedule: Q04DX003 (ip), vehicle: Klucel (hydroxypropylcellulose) (HPC) 91 % of control | dose: 200.0 mg/kg/injection, schedule: Q04DX003 (ip), vehicle: Klucel (hydroxypropylcellulose) (HPC) 91 % of control | dose: 400.0 mg/kg/injection, schedule: Q04DX003 (ip), vehicle: Klucel (hydroxypropylcellulose) (HPC) 105 % of control

COc1ccc(C(=O)C(CN(C)C)CN(C)C)cc1OC
inactive: dose: 6.25 mg/kg/injection, schedule: Q01DX005 (ip), vehicle: saline 113 % of control | dose: 12.5 mg/kg/injection, schedule: Q01DX005 (ip), vehicle: saline 117 % of control and 124 % of control | dose: 25.0 mg/kg/injection, schedule: Q01DX005 (ip), vehicle: saline 117 % of control and 121 % of control | dose: 50.0 mg/kg/injection, schedule: Q01DX005 (ip), vehicle: saline 112 % of control

CCCNCC/C=C/[Si](C)(C)C
inactive: [1] 105 % of control | [2] 100 % of control

CN(C)C(=S)Oc1ccccc1C1SCCS1
inactive: [3] 101 % of control | [4] 99 % of control | [5] 105 % of control

O=C(O)c1ccc(N=NC2Sc3nc4ccccc4n3C2=O)cc1 (stereo not given)
inactive: [6] 92 % of control | [7] 91 % of control

CCOC(=O)OC(C#N)(c1ccc([N+](=O)[O-])cc1)c1nccc2ccccc12 (stereo not given)
inactive: dose: 12.5 mg/kg/injection, schedule: Q01DX009 (ip), vehicle: saline 93 % of control | [8] 97 % of control | [9] 87 % of control

Cc1cccc(Cl)c1NC(=O)CSCCN(C)C
inactive: [6] 106 % of control | [7] 103 % of control

COCCCN1CC(=O)N2Cc3ccccc3CN2C(=O)C1
inactive: [3] 98 % of control | [4] 98 % of control | [5] 103 % of control

NC(=O)C1(Br)C=[N+](Cc2ccccc2)CCC1 (stereo not given)
inactive: [1] 103 % of control | [2] 95 % of control

NCCC(=O)OCN1C(=O)C2C3C=CC(C2C1=O)C1C2C(=O)N(COC(=O)CCN)C(=O)C2C31 (stereo not given)
inactive: dose: 12.5 mg/kg/injection, schedule: Q01DX009 (ip), vehicle: water 88 % of control | dose: 25.0 mg/kg/injection, schedule: Q01DX009 (ip), vehicle: water 102 % of control | dose: 50.0 mg/kg/injection, schedule: Q01DX009 (ip), vehicle: water 99 % of control | dose: 100.0 mg/kg/injection, schedule: Q01DX009 (ip), vehicle: water 100 % of control | dose: 200.0 mg/kg/injection, schedule: Q01DX009 (ip), vehicle: water 118 % of control

CC(C)(Cc1nc2ccccc2[nH]1)Cc1nc2ccccc2[nH]1
inactive: dose: 7.5 mg/kg/injection, schedule: Q01DX005 (ip), vehicle: Klucel (hydroxypropylcellulose) (HPC) 99 % of control | dose: 15.0 mg/kg/injection, schedule: Q01DX005 (ip), vehicle: Klucel (hydroxypropylcellulose) (HPC) 94 % of control | dose: 30.0 mg/kg/injection, schedule: Q01DX005 (ip), vehicle: Klucel (hydroxypropylcellulose) (HPC) 91 % of control | [6] 90 % of control

O=C1OC(=O)C(c2ccccc2)(c2ccccc2)C1c1ccccc1 (stereo not given)
inactive: [10] 112 % of control | [11] 119 % of control | [12] 112 % of control

CCOC(=O)c1ccc(N(CC(O)CN)S(=O)(=O)c2ccc(C)cc2)cc1 (stereo not given)
inactive: dose: 15.0 mg/kg/injection, schedule: Q01DX005 (ip), vehicle: saline with Tween-80 102 % of control | dose: 30.0 mg/kg/injection, schedule: Q01DX005 (ip), vehicle: saline with Tween-80 101 % of control | [13] 101 % of control and 92 % of control

COc1ccc(C(=O)C2C(=O)C(=O)OC2C2OC(=O)C(=O)C2C(=O)c2ccc(OC)cc2)cc1 (stereo not given)
inactive: [14] 100 % of control | [1] 94 % of control and 95 % of control | [2] 93 % of control

COc1cccc2c1C(=O)c1c(O)c3c(c(O)c1C2=O)CC(O)(c1csc(C)n1)CC3O (stereo not given)
inactive: dose: 1.56 mg/kg/injection, schedule: Q01DX009 (ip), vehicle: other 105 % of control | dose: 3.13 mg/kg/injection, schedule: Q01DX009 (ip), vehicle: other 96 % of control | dose: 6.25 mg/kg/injection, schedule: Q01DX009 (ip), vehicle: other 100 % of control | [15] 100 % of control | [16] 99 % of control and 107 % of control | dose: 50.0 mg/kg/injection, schedule: Q01DX009 (ip), vehicle: other 108 % of control | [17] 107 % of control

CCN(Cc1ccc(CN(CC)C(=O)c2c(-c3ccccc3)noc2C)cc1)C(=O)c1c(-c2ccccc2)noc1C
inactive: [9] 90 % of control | dose: 100.0 mg/kg/injection, schedule: Q01DX009 (ip), vehicle: suspension in saline 92 % of control | dose: 200.0 mg/kg/injection, schedule: Q01DX009 (ip), vehicle: suspension in saline 86 % of control and 94 % of control

COC(=O)C1C(O)C(C)C(O)C(C)/C=C\C=C(C)C(=O)Nc2c(C)c(OC(C)=O)c3c(c2O)C(=O)C(C)=C2OCOC(=C23)C(C)=CC(C)(O)C(O)C(C)C1O (stereo not given)
inactive: [8] 107 % of control | dose: 50.0 mg/kg/injection, schedule: Q01DX009 (ip), vehicle: saline 107 % of control | dose: 100.0 mg/kg/injection, schedule: Q01DX009 (ip), vehicle: saline 107 % of control | dose: 200.0 mg/kg/injection, schedule: Q01DX009 (ip), vehicle: saline 89 % of control

N#CCCCCCN1CCN(c2cccc(Cl)c2)CC1
inactive: dose: 50.0 mg/kg/injection, schedule: Q01DX009 (ip), vehicle: Klucel (hydroxypropylcellulose) (HPC) 100 % of control | dose: 100.0 mg/kg/injection, schedule: Q01DX009 (ip), vehicle: Klucel (hydroxypropylcellulose) (HPC) 100 % of control | dose: 200.0 mg/kg/injection, schedule: Q01DX009 (ip), vehicle: Klucel (hydroxypropylcellulose) (HPC) 96 % of control

COc1cc(C2C3=C(CCC3)Oc3cc4c(cc32)OCO4)cc(OC)c1OC (stereo not given)
inactive: [13] 91 % of control | [18] 86 % of control | [19] 86 % of control

CN(C)Cc1cnccc1I
inactive: dose: 50.0 mg/kg/injection, schedule: Q01DX005 (ip), vehicle: suspension in saline 101 % of control | dose: 100.0 mg/kg/injection, schedule: Q01DX005 (ip), vehicle: suspension in saline 104 % of control | dose: 200.0 mg/kg/injection, schedule: Q01DX005 (ip), vehicle: suspension in saline 108 % of control

N#CC1Sc2ccccc2N1C(=O)Oc1ccccc1 (stereo not given)
inactive: [13] 102 % of control | [18] 106 % of control | [19] 106 % of control

CNC(=S)NNc1ccc(C)cc1
inactive: [15] 87 % of control | [16] 90 % of control | [17] 92 % of control | dose: 200.0 mg/kg/injection, schedule: Q01DX009 (ip), vehicle: other 101 % of control

O=C1OC(O)C(Cl)=C1Cl (stereo not given)
inactive: dose: 0.79 mg/kg/injection, schedule: Q01DX005 (ip), vehicle: saline with Tween-80 111 % of control | dose: 1.56 mg/kg/injection, schedule: Q01DX005 (ip), vehicle: saline with Tween-80 112 % of control | dose: 3.12 mg/kg/injection, schedule: Q01DX005 (ip), vehicle: saline with Tween-80 114 % of control | dose: 6.25 mg/kg/injection, schedule: Q01DX005 (ip), vehicle: saline with Tween-80 120 % of control

COc1cc2c(cc1OC)C13CCN4CC5=CCOC(CC(=O)O)C(C5CC41)C3N2 (stereo not given)
inactive: dose: 15.0 mg/kg/injection, schedule: Q01DX005 (ip), vehicle: saline 100 % of control | [14] 96 % of control | [13] 99 % of control | [1] 94 % of control and 93 % of control | [2] 96 % of control

N#CCCN/N=C\c1ccc2c(c1)OCO2
inactive: [10] 102 % of control | [11] 96 % of control | [12] 92 % of control

CCCOC1=NC2=NC(OCCC)=NC3=C(Br)C=C(Br)C(=N1)N23
inactive: dose: 50.0 mg/kg/injection, schedule: Q01DX005 (ip), vehicle: Klucel (hydroxypropylcellulose) (HPC) 95 % of control | dose: 100.0 mg/kg/injection, schedule: Q01DX005 (ip), vehicle: Klucel (hydroxypropylcellulose) (HPC) 94 % of control | dose: 200.0 mg/kg/injection, schedule: Q01DX005 (ip), vehicle: Klucel (hydroxypropylcellulose) (HPC) 91 % of control

Cc1cc(C)nc(NS(=O)(=O)c2ccc(N=c3c4ccccc4n(C)c4ccccc34)cc2)n1
inactive: [3] 90 % of control | [4] 97 % of control | [5] 90 % of control
